Test results reported in patent US11440886B2, “Anti-inflammatory compound, and preparation and use thereof” (E-Nitiate Biopharmaceuticals (Hangzhou) Co., Ltd., priority 2018, dated 2022).

Molecular target: human recombinant PDE4B1 enzyme (Homo sapiens (Human), UniProt Q07343)
Experiment: Inhibition of PDE4B1 activity by cAMP HTRF assay
Type: biochemical
Conditions: human recombinant PDE4B1, cAMP 40 nM, pH 7.4
Description: Determination of the inhibition of the compounds on PDE4B1 activity by using cAMP HTRF® assay
The inhibitory effect of the compounds on human PDE4B1 enzyme activity was determined by quantifying the 5′-adenosine monophosphate (5′-AMP) formed from 3′,5′-cyclic adenosine monophosphate (cAMP).
The test compound or water (control) and human recombinant PDE4B1 enzyme (4.8 U) were mixed in a buffer solution (pH 7.4) consisting of 1× Hanks' balanced salt solution (HBSS), 5 mM HEPES, 3 mM MgCl2, and 0.1% BSA and incubated for 10 min. A cAMP enzyme substrate (final concentration 40 nM) was added, and the mixture was incubated at room temperature for 60 min. Then a fluorescent acceptor (Dye2 labeled with cAMP), a fluorescent donor (anti-cAMP antibody labeled with europium cryptate) and a non-specific phosphodiesterase inhibitor IBMX (3-isobutyl-1-methyl xanthine; final concentration 1 mM) were added. After 60 min, the fluorescence transfer related to the amount of remaining cAMP was measured on a microplate reader (Rubystar, BMG) at λex=337 nm, λem=620 nm and λem=665 nm. The enzyme activity is calculated from the ratio of the signals measured at 665 nm and 620 nm. The results are expressed as percent inhibition of the enzyme activity of the control (without PDE4 inhibitor). The enzyme was omitted for measurement of the basic control. The IC50 value (IC50=the concentration that caused the half-maximum inhibition of the specific activity of the control) is derived from dose-response measurements with eight different concentrations (n=2; repeated 2 times)

human recombinant PDE4B1 enzyme, sequence (Q07343 whole entry): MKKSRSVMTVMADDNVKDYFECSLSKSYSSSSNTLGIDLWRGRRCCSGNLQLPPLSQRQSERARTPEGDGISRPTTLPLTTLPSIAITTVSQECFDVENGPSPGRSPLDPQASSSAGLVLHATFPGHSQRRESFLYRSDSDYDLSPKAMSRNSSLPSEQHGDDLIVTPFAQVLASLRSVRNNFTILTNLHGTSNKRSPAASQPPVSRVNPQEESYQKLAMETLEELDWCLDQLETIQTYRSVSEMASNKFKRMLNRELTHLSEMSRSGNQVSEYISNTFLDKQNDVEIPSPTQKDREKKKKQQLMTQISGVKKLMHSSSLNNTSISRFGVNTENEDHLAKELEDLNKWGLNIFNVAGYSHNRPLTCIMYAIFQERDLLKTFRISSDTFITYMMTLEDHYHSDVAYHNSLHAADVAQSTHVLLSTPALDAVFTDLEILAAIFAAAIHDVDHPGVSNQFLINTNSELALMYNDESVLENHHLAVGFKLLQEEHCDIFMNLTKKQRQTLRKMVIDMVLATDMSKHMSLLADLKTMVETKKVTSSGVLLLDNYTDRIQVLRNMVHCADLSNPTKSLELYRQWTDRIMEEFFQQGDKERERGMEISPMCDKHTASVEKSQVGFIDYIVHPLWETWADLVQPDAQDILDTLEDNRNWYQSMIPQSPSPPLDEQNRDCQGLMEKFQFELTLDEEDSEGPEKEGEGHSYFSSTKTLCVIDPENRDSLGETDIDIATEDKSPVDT

Row | SMILES | IC50
1 | Cc1cc(=O)cc(C)n1/C=C/c1ccc(OC(F)F)c(O[C@H]2CCSC2)c1 [Example 97, (S,E)-1-(3-(tetrahydrothiophen-3-yl)oxy-4-difluoromethoxystyryl)-2,6-dimethylpyridin-4(1H)-one] | 0.0037 µM
2 | COc1ccc(/C=C/n2c(C)cc(=O)cc2C)cc1O[C@H]1CC[S+]([O-])C1 (single isomer, unassigned) [Example 83-1] | 0.55 µM
3 | COc1ccc(/C=C/n2c(C)cc(=O)cc2C)cc1OC1CCCC1 [Example 62, (E)-1-((3-cyclopentyloxy-4-methoxy)-styryl)-2,6-dimethylpyridin-4(1H)-one] | 0.0102 µM
4 | COc1ccc(C(=O)Cn2c(C)cc(=O)cc2C)cc1OC1COC1 [Example 30, 1-(2-(3-(oxacyclobutan-3-yl-oxy)-4-methoxyphenyl)-2-oxoethyl)-2,6-dimethylpyridin-4(1H)-one] | 0.116 µM
5 | CNC(=O)/C(=C\n1c(C)cc(=O)cc1C)c1ccc(OC)c(OCC2CC2)c1 [Example 108, (Z)-2-(3-cyclopropylmethoxy-4-methoxyphenyl)-3-(2,6-dimethyl-4-carbonylpyridin-1(4H)-yl)-N-methylacrylamide] | 0.76 µM
6 | CCCOc1cc(C(=O)Cn2c(C)cc(=O)cc2C)ccc1OC [Example 13, 1-(2-(3-propoxy-4-methoxyphenyl)-2-oxoethyl)-2,6-dimethylpyridin-4(1H)-one] | 0.0049 µM
7 | CCCCOc1cc(/C=C/n2c(C)cc(=O)cc2C)ccc1OC [Example 55, (E)-1-((3-n-butoxy-4-methoxy)-styryl)-2,6-dimethylpyridin-4(1H)-one] | 0.054 µM
8 | COc1ccc(C(=O)Cn2c(C)cc(=O)cc2C)cc1OCSC [Example 32, 1-(2-(3-methylthiomethoxy-4-methoxyphenyl)-2-oxoethyl)-2,6-dimethylpyridin-4(1H)-one] | 0.0139 µM
9 | CC#CC(=O)OC(Cn1c(C)cc(=O)cc1C)c1ccc(OC)c(OCC2CC2)c1 (stereo not drawn) [Example 8, (1-(3-cyclopropylmethoxy-4methoxyphenyl)-2-(2,6-dimethyl-4-carbonylpyridin-1(4H)-yl)ethyl) but-2-ynoate] | 0.023 µM
10 | CCCCCOc1cc(C(=O)Cn2c(C)cc(=O)cc2C)ccc1OC [Example 17, 1-(2-(3-n-pentyloxy-4-methoxyphenyl)-2-oxoethyl)-2,6-dimethylpyridin-4(1H)-one] | 0.016 µM
11 | Cc1cc(=O)cc(C)n1/C=C/c1ccc(OC(F)F)c(O[C@@H]2CC[S+]([O-])C2)c1 (single isomer, unassigned) [Example 101-2] | 0.026 µM
12 | COc1ccc(C(=O)Cn2c(C)cc(=O)cc2C)cc1OC [Example 11, 1-(2-(3,4-dimethoxyphenyl)-2-oxoethyl)-2,6-dimethylpyridin-4(1H)-one] | 0.044 µM
13 | COc1ccc(/C(Cn2c(C)cc(=O)cc2C)=N\OCSC)cc1OCC1CC1 [Example 42, (E)-1-(2-(3-cyclopropylmethoxy-4-methoxyphenyl)-2-(methylthiomethoxyimido)ethyl)-2,6-dimethylpyridin-4(1H)-one] | 0.0082 µM
14 | COc1ccc(C(=O)Cn2c(C)cc(=O)cc2C)cc1OC1CCCC1 [Example 23, 1-(2-(3-cyclopentyloxy-4-methoxyphenyl)-2-oxoethyl)-2,6-dimethylpyridin-4(1H)-one] | 0.005 µM
15 | COc1ccc(C(=O)Cn2ccc(=O)cc2Cl)cc1OCC1CC1 [Example 47, 1-(2-(3-cyclopropylmethoxy-4-methoxyphenyl)-2-oxoethyl)-2-chloropyridin-4(1H)-one] | 0.0071 µM
16 | COc1ccc(/C=C/n2ccc(=O)cc2C)cc1OCC1CC1 [Example 51, (E)-1-(3-cyclopropylmethoxy-4-methoxystyryl)-2-methylpyridin-4(1H)-one] | 0.057 µM
17 | COc1ccc(/C=C/n2c(C)cc(=O)cc2C)cc1OCC=C(C)C [Example 65, (E)-1-((3-(3-methylbut-2-en-1-yl)oxy-4-methoxy)-styryl)-2,6-dimethylpyridin-4(1H)-one] | 0.52 µM
18 | COc1ccc(/C=C/n2c(C)cc(=O)cc2C)cc1OC1CC=CC1 [Example 63, (E)-1-(3-(cyclopent-3-en-1-yloxy)-4-methoxystyryl)-2,6-dimethylpyridin-4(1H)-one] | 0.0111 µM

Row | SMILES | IC50
19 | CC#C/C(=C\n1c(C)cc(=O)cc1C)c1ccc(OC)c(OCC2CC2)c1 [Example 105, (Z)-1-(2-(3-cyclopropylmethoxy-4-methoxyphenyl)pent-1-en-3-yn-1-yl)-2,6-dimethylpyridin-4(1H)-one] | 0.003 µM
20 | COc1ccc(/C=C/n2c(C)cc(=O)cc2C)cc1OCC1CC1 [Example 59, (E)-1-(3-cyclopropylmethoxy-4-methoxystyryl)-2,6-dimethylpyridin-4(1H)-one] | 0.0051 µM
21 | COc1ccc(/C=C/n2c(C)cc(=O)cc2C)cc1OC1CCCO1 (stereo not drawn) [Example 70, (E)-1-((3-(tetrahydrofuran-2-yl)oxy-4-methoxy)-styryl)-2,6-dimethylpyridin-4(1H)-one] | 0.0081 µM
22 | COc1ccc(C(=O)Cn2c(C)cc(=O)cc2C)cc1OCC[S+](C)[O-] (stereo not drawn) [Example 36, 1-(2-(3-methylsulfoxideethoxy-4-methoxyphenyl)-2-oxoethyl)-2,6-dimethylpyridin-4(1H)-one] | 1.25 µM
23 | CC#CCOC(Cn1c(C)cc(=O)cc1C)c1ccc(OC)c(OCC2CC2)c1 (stereo not drawn) [Example 9, 1-(2-(but-2-yn-1-yloxy)-2-(3-cyclopropylmethoxy-4-methoxyphenyl)ethyl)-2,26-dimethylpyridin-4-(1H)-one] | 0.025 µM
24 | COc1ccc(C(=O)Cn2c(C)cc(=O)cc2C)cc1OC(C)C [Example 14, 1-(2-(3-isopropoxy-4-methoxyphenyl)-2-oxoethyl)-2,6-dimethylpyridin-4(1H)-one] | 0.021 µM
25 | COc1ccc(/C(Cn2c(C)cc(=O)cc2C)=N/OCS(C)(=O)=O)cc1OCC1CC1 [Example 44, (Z)-1-(2-(3-cyclopropylmethoxy-4-methoxyphenyl)-2-(methylsulfonemethoxyimido)ethyl)-2,6-dimethylpyridin-4(1H)-one] | 0.03 µM
26 | COc1ccc(/C=C/n2c(C)cc(=O)cc2C)cc1OC(C)C [Example 54, (E)-1-(3-isopropoxy-4-methoxystyryl)-2,6-dimethylpyridin-4(1H)-one] | 0.026 µM
27 | C#CCOc1cc(/C=C/n2c(C)cc(=O)cc2C)ccc1OC [Example 66] | 0.27 µM
28 | COc1ccc(/C=C/n2c(C)cc(=O)cc2C)cc1O[C@@H]1CC[S+]([O-])C1 (single isomer, unassigned) [Example 86-1] | 0.31 µM
29 | COc1ccc(C(=O)Cn2c(C)cc(=O)cc2C)cc1OCS(C)(=O)=O [Example 34, 1-(2-(3-methylsulfonemethoxy-4-methoxyphenyl)-2-oxoethyl)-2,6-dimethylpyridin-4(1H)-one] | 0.42 µM
30 | COc1ccc(/C(C)=C/n2c(C)cc(=O)cc2C)cc1OCC1CC1 [Example 103, (E)-1-(2-(3-cyclopropylmethoxy-4-methoxyphenyl)-2-methylethenyl)-2,6-dimethylpyridin-4(1H)-one] | 0.014 µM
31 | COc1ccc(/C=C/n2c(C)cc(=O)cc2C)cc1OC(=O)C1CC1 [Example 72, (E)-1-((3-cyclopropylformyloxy-4-methoxy)-styryl)-2,6-dimethylpyridin-4(1H)-one] | 3.9 µM
32 | Cc1cc(=O)cc(C)n1/C=C/c1ccc(OC(F)F)c(OCC[S+](C)[O-])c1 (stereo not drawn) [Example 94, (E)-1-(3-methylsulfoxideethoxy-4-difluoromethoxystyryl)-2,6-dimethylpyridin-4(1H)-one] | 0.137 µM
33 | C#CCOc1cc(C(=O)Cn2c(C)cc(=O)cc2C)ccc1OC [Example 28, 1-(2-(3-propargyloxy-4-methoxyphenyl)-2-oxoethyl)-2,6-dimethylpyridin-4(1H)-one] | 0.092 µM
34 | COc1cc(/C=C/n2c(C)cc(=O)cc2C)ccc1OC(F)F [Example 89, (E)-1-(3-methoxy-4-difluoromethoxy-styryl)-2,6-dimethylpyridin-4(1H)-one] | 0.0069 µM
35 | Cc1cc(=O)cc(C)n1/C=C/c1ccc(OC(F)F)c(O[C@@H]2CCSC2)c1 [Example 100, (R,E)-1-(3-(tetrahydrothiophen-3-yl)oxy-4-difluoromethoxystyryl)-2,6-dimethylpyridin-4(1H)-one] | 0.0015 µM
36 | COc1ccc(C(O)Cn2c(C)cc(=O)cc2C)cc1OCC1CC1 (stereo not drawn) [Example 1, 1-(2-(3-cyclopropylmethoxy-4-methoxyphenyl)-2-hydroxyethyl)-2,6, dimethylpyridin-4(1H)-one] | 0.76 µM
